Measured values from ChEMBL document CHEMBL4480390, “Cink4T, a quinazolinone-based dual inhibitor of Cdk4 and tubulin polymerization, identified via ligand-based virtual screening, for efficient anticancer therapy” (Eur J Med Chem, 2019).

Target: Cyclin-dependent kinase 4/cyclin D1 (Homo sapiens) (UniProt P11802+P24385)
Experiment: Inhibition of recombinant human N-terminal GST-tagged CDK4 (S4 to E303 residues)/Cyclin D1 (Q4 to I295 residues) expressed in sf9 cells at 10 uM using RBCTF as substrate measured after 1 hr by ADP-glo luminescence assay relative to control

Structure (SMILES) | inhibition
CCOc1ccc(NC(=O)COc2cc(-c3nc4ccccc4c(=O)[nH]3)ccc2OC)cc1 | 3%
COc1ccc(NC(=O)COc2cc(-c3nc4ccccc4c(=O)[nH]3)ccc2OC)cc1 | 14%
Oc1nc(-c2cccnc2)nc2ccccc12 | 36%
O=C(COc1ccc(-c2nc3ccccc3c(=O)[nH]2)cc1)Nc1cccc2ccccc12 | 5%
COc1cccc(NC(=O)COc2cc(-c3nc4ccccc4c(=O)[nH]3)ccc2OC)c1 | 5%
COc1ccc(-c2nc3ccccc3c(=O)[nH]2)cc1Oc1ccc(F)cc1 | 46%
O=C(COc1ccc(-c2nc3ccccc3c(=O)[nH]2)cc1)Nc1ccccc1 | 45%
COc1cc(-c2nc3ccccc3c(=O)[nH]2)ccc1Oc1ccc(Cl)cc1Cl | 55%
O=C(COc1ccc(-c2nc3ccccc3c(=O)[nH]2)cc1)Nc1ccc([N+](=O)[O-])cc1 | 26%
CCCCNC(=O)COc1ccc(-c2nc3ccccc3c(=O)[nH]2)cc1OC | 48%
COc1ccccc1NC(=O)COc1cc(-c2nc3ccccc3c(=O)[nH]2)ccc1OC | 21%
COc1cccc(NC(=O)COc2ccc(-c3nc4ccccc4c(=O)[nH]3)cc2OC)c1 | 16%
COc1ccc(-c2nc3ccccc3c(=O)[nH]2)cc1OCC(=O)Nc1ccccc1 | 20%
O=C(COc1ccc(-c2nc3ccccc3c(=O)[nH]2)cc1O)Nc1ccc(Cl)cc1 | 0%
O=C(COc1ccc(-c2nc3ccccc3c(=O)[nH]2)cc1)Nc1ccc2ccccc2c1 | 0%
CCOc1ccc(NC(=O)COc2ccc(-c3nc4ccccc4c(=O)[nH]3)cc2OC)cc1 | 0%
COc1ccc(-c2nc3ccccc3c(=O)[nH]2)cc1OCc1ccc(F)cc1F | 45%
COc1ccc(NC(=O)COc2ccc(-c3nc4ccccc4c(=O)[nH]3)cc2OC)cc1 | 41%
Cc1ccc(NC(=O)COc2ccc(-c3nc4ccccc4c(=O)[nH]3)cc2)cc1 | 5%
COc1ccc(-c2nc3ccccc3c(=O)[nH]2)cc1OCC(=O)Nc1ccccc1C | -5%
COc1ccc(-c2nc3ccccc3c(=O)[nH]2)cc1OCC(=O)Nc1ccc([N+](=O)[O-])cc1 | 1%
COc1cc(-c2nc3ccccc3c(=O)[nH]2)ccc1OCc1ccc(F)cc1F | 36%
COc1ccc(-c2nc3ccccc3c(=O)[nH]2)cc1OCC(=O)Nc1ccccc1Cl | 41%
COc1cc(-c2nc3ccccc3c(=O)[nH]2)ccc1OCC(=O)Nc1ccc(F)cc1 | 7%

Further lines, results first:

inhibition | Structure (SMILES)
-6% | O=c1[nH]c(-c2cccc(O)c2)nc2ccccc12
31% | O=c1[nH]c(-c2ccc(Br)cc2)nc2ccccc12
0% | COc1ccc(-c2nc3ccccc3c(=O)[nH]2)cc1O
0% | O=c1[nH]c(-c2ccc([N+](=O)[O-])cc2)nc2ccccc12
42% | CS(=O)(=O)Oc1ccc(-c2nc3ccccc3c(=O)[nH]2)cc1
39% | COc1cc(-c2nc3ccccc3c(=O)[nH]2)ccc1O
30% | O=c1[nH]c(-c2ccc(Oc3ccc(F)cc3)cc2)nc2ccccc12
20% | O=C(COc1ccc(-c2nc3ccccc3c(=O)[nH]2)cc1)NC1CCCCC1
30% | O=c1[nH]c(-c2ccc(O)cc2)nc2ccccc12
30% | O=c1[nH]c(-c2ccc(OCc3ccc(F)cc3F)cc2)nc2ccccc12
38% | C#CCOc1ccc(-c2nc3ccccc3c(=O)[nH]2)cc1OC
